Values of other authors as cited in PMC11439047 (Nature Communications, 2024).

System: P2X1 receptor
Conditions: cited from earlier work

O=C(O)c1cc(C(=O)O)c(C(=O)N(Cc2cccc(Oc3ccccc3)c2)[C@H]2CCCc3ccccc32)cc1C(=O)O [A-317491]
activity for the P2X1 receptor: weak activity
